Our source for the IC50 values is US20150025120A1, “PYRAZOLE-ALCOHOL COMPOUNDS AND PHARMACEUTICAL USE THEREOF” (JAPAN TOBACCO INC., priority 2013, published 2015).

This assay addresses T1, human PDHK1 (hPDHK1) (Homo sapiens, UniProt Q15118).
T1 construct: made in house; host or cells: Escherichia coli BL21(DE3), pET17b
Kind of assay: Inhibitory action of PDHK1 activity in vitro (residual PDH activity after kinase reaction). The class given is biochemical. The procedure:
The inhibitory action of PDHK activity was assessed indirectly by measuring the residual PDH activity after kinase reaction in the presence of a test compound.
In the case of human PDHK1 (hPDHK1, Genbank Accession No. L42450.1), a 1.3 kbp fragment encoding this protein was isolated from human liver cDNA by polymerase chain reaction (PCR). Modified hPDHK1 cDNA wherein FLAG-Tag sequence was added to the N terminus was prepared by PCR and cloned into a vector (pET17b-Novagen). The recombinant construct was transformed into Escherichia coli (DH5α-TOYOBO). The recombinant clones were identified, and plasmid DNA was isolated and subjected to the DNA sequence analysis. One clone which had the expected nucleic acid sequence was selected for expression work. […]
Then, 10 μL of substrates (5 mmol/L sodium pyruvate, 5 mmol/L Coenzyme A, 12 mmol/L NAD, 5 mmol/L thiamin pyrophosphate, diluted with buffer) were added. The mixture was incubated at room temperature for 90 min, and the residual PDH activity was measured.
The absorbance at 340 nm before and after PDH reaction was measured using a microplate reader to detect NADH produced by the PDH reaction. The hPDHK1 inhibition rate (%) of the test compound was calculated from the formula [{(PDH activity of the test compound−PDH activity of control)/PDH activity of blank−PDH activity of control)}× 100].

The structures appear in SMILES notation.

T1 sequence (Q15118 29-436): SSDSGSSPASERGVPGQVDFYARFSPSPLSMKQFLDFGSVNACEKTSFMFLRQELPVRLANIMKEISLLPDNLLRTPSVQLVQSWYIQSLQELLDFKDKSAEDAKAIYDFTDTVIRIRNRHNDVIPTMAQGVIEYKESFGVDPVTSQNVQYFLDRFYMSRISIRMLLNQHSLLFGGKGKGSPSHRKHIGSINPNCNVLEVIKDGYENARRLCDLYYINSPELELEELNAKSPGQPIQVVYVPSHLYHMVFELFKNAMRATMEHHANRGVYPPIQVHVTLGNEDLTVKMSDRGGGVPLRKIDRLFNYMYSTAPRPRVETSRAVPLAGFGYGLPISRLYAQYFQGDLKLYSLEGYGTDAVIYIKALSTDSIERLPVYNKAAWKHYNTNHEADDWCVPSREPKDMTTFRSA

The term IC50 denotes the concentration needed to halve the response being measured. A higher IC50 goes with weaker potency in that assay. In turn, `C[C@H](O)COc1cc(-c2cnn(CC(C)(C)O)c2)c2c(c1)[C@@](O)(C(F)(F)F)c1ccccc1-2` [compound (1), (9R)-4-[1-(2-hydroxy-2-methylpropyl)-1H-pyrazol-4-yl]-2-((2S)-2-hydroxypropoxy)-9-(trifluoromethyl)-9H-fluoren-9-ol] returned an IC50 of 28 nM.
For `CC(C)(O)COc1cc(-c2cnn(CC(C)(C)O)c2)c2c(c1)[C@@](O)(C(F)(F)F)c1ccccc1-2` [compound (2), (9R)-2-(2-hydroxy-2-methylpropoxy)-4-[1-(2-hydroxy-2-methylpropyl)-1H-pyrazol-4-yl]-9-(trifluoromethyl)-9H-fluoren-9-ol], inhibition was half-maximal at 34 nM (IC50).
